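Compound exposure: 48 hours, 5 concentrations, 96-well plates. Abbreviation: GI50, concentration required for 50% inhibition of growth.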 Calls of active or inactive are those of the source. No stated cut-off is given here; in the data, active = GI50 up to about 1.1 µM and inactive = higher.
Experiments:
Assay in all cases: NCI tumour cell line growth inhibition, 48 h
CAKI-1 = test system: CAKI-1
SF-268 = test system: SF-268
UACC-62 = test system: UACC-62
KM12 = test system: KM12
SK-MEL-5 = test system: SK-MEL-5
SF-539 = test system: SF-539
NCI-H522 = test system: NCI-H522
IGROV-1 = test system: IGROV-1
A549 = test system: A549
CCRF-CEM = test system: CCRF-CEM
SN12C = test system: SN12C
HOP-92 = test system: HOP-92
SNB-19 = test system: SNB-19
HCT-116 = test system: HCT-116
SNB-78 = test system: SNB-78
HT-29 = test system: HT-29
Malme-3M = test system: Malme-3M
OVCAR-4 = test system: OVCAR-4
TK-10 = test system: TK-10
ACHN = test system: ACHN

Row | SMILES | GI50 (CAKI-1) | GI50 (SF-268) | GI50 (UACC-62) | GI50 (KM12) | GI50 (SK-MEL-5) | GI50 (SF-539) | GI50 (NCI-H522) | GI50 (IGROV-1) | GI50 (A549) | GI50 (CCRF-CEM) | GI50 (SN12C) | GI50 (HOP-92) | GI50 (SNB-19) | GI50 (HCT-116) | GI50 (SNB-78) | GI50 (HT-29) | GI50 (Malme-3M) | GI50 (OVCAR-4) | GI50 (TK-10) | GI50 (ACHN)
1 | Cc1cc(C)c(C2=NO[C@@H]3[C@H]2C(=O)C=C2N(Cc4ccccc4)CCO[C@@]23O)c(C)c1 | 1 µM (active) | > 100 µM (inactive) | > 100 µM (inactive) | > 100 µM (inactive) | > 100 µM (inactive) | > 100 µM (inactive) | > 100 µM (inactive) | > 100 µM (inactive) | > 100 µM (inactive) | > 100 µM (inactive) | > 100 µM (inactive) | > 100 µM (inactive) | > 100 µM (inactive) | > 100 µM (inactive) | > 100 µM (inactive) | > 100 µM (inactive) | > 100 µM (inactive) | > 100 µM (inactive) | – | –
2 | CC(C)C(=O)N1C(=O)O[C@@H](c2ccccc2)[C@H]1C | > 37 µM (inactive) | > 100 µM (inactive) | > 100 µM (inactive) | > 100 µM (inactive) | > 100 µM (inactive) | > 100 µM (inactive) | > 100 µM (inactive) | > 100 µM (inactive) | > 100 µM (inactive) | > 100 µM (inactive) | > 100 µM (inactive) | > 100 µM (inactive) | > 23.6 µM (inactive) | > 100 µM (inactive) | > 100 µM (inactive) | > 100 µM (inactive) | > 100 µM (inactive) | > 100 µM (inactive) | > 100 µM (inactive) | > 100 µM (inactive)
3 | OCC1C2C=CC(O2)[C@H]1CO (stereo partly drawn) | > 100 µM (inactive) | > 100 µM (inactive) | > 100 µM (inactive) | > 100 µM (inactive) | > 100 µM (inactive) | > 100 µM (inactive) | > 100 µM (inactive) | > 100 µM (inactive) | > 100 µM (inactive) | 78.7 µM (inactive) | > 100 µM (inactive) | > 100 µM (inactive) | > 100 µM (inactive) | > 100 µM (inactive) | > 100 µM (inactive) | 79.6 µM (inactive) | > 100 µM (inactive) | > 100 µM (inactive) | > 100 µM (inactive) | > 100 µM (inactive)

From ChEMBL document CHEMBL1201862, “PubChem BioAssay data set” (2004)
